{"source": "patent US20090209535A1", "about": "“6-ETHER/THIOETHER-PURINES AS TOPOISOMERASE II CATALYTIC INHIBITORS AND THEIR USE IN THERAPY” (TOPOTARGET A/S, priority 2005, published 2009)", "key": {"[1]": {"tested_on": "human SCLC OC—NYH cells", "experiment": "Clonogenic assay, antagonism of etoposide-induced cytotoxicity", "type": "cell-based", "details": "20 μM etoposide, one hour; 20 min pre-exposure", "quoted_text": "Cells were then plated in 0.3% agar in 6 cm petri dishes with sheep red blood cells as feeder layer in triplicate, and were incubated under the same conditions as described above. Plates were counted after 3 weeks.\n20 μM etoposide was then added, and the cells were incubated for one hour. Next, the drugs were washed out and the cells were plated and counted after three weeks as described herein."}, "[2]": {"target": "T1, wild-type human topoisomerase II α (Homo sapiens, UniProt P11388)", "T1 construct": "made in house; host or cells: yeast (over-expressing yeast cells)", "experiment": "Topoisomerase II DNA strand passage assay (kDNA decatenation), wild-type enzyme", "type": "biochemical", "details": "wild-type enzyme", "experimental": "Topoisomerase II catalytic activity (DNA strand passage activity) was measured by using a filter-based kDNA decatenation assay as described in Jensen et al., 2002. Briefly, 200 ng ^3H labelled kDNA isolated from C. fasciculata was incubated with increasing concentrations of drug in 20 μL reaction buffer containing 10 mM TRIS-HCl pH 7.7, 50 mM NaCl, 50 mM KCl, 5 mM MgCl2, 1 mM EDTA, 15 μg/mL BSA and 1 mM ATP using two units of purified wild-type or Y165S mutant topoisomerase II α for 20 minutes at 37° C. (where one unit of activity is defined as the amount of enzyme required for complete decatenation in the absence of drug). After addition of 5× stop buffer (5% Sarkosyl, 0.0025% bromophenol blue, and 50% glycerol), unprocessed kDNA network and decatenated DNA mini-circles were separated by filtering, and the amount of unprocessed kDNA in each reaction was determined by scintillation counting.\nFIG. 2 describes the results of studies of the inhibition of topoisomerase II DNA strand passage activity by increasing concentrations of NSC 35866. Inhibition of human topoisomerase II α DNA strand passage activity was assessed by decatenation of tritium-labelled Crithidia fasiculata kDNA using a filter-based assay to separate unprocessed kDNA network from decatenated mini-circles. […] Error bars represent SEM of three independent experiments in panel A and two independent experiments in panel B.\nInhibition of human topoisomerase II α DNA strand passage activity was determined by decatenation of tritium labelled Crithidia fasiculata kDNA as described for FIG. 2. Error bars represent SEM of 3 or 4 independent experiments."}, "[3]": {"target": "topoisomerase II α (Homo sapiens, UniProt P11388)", "sequence (P11388 whole entry)": "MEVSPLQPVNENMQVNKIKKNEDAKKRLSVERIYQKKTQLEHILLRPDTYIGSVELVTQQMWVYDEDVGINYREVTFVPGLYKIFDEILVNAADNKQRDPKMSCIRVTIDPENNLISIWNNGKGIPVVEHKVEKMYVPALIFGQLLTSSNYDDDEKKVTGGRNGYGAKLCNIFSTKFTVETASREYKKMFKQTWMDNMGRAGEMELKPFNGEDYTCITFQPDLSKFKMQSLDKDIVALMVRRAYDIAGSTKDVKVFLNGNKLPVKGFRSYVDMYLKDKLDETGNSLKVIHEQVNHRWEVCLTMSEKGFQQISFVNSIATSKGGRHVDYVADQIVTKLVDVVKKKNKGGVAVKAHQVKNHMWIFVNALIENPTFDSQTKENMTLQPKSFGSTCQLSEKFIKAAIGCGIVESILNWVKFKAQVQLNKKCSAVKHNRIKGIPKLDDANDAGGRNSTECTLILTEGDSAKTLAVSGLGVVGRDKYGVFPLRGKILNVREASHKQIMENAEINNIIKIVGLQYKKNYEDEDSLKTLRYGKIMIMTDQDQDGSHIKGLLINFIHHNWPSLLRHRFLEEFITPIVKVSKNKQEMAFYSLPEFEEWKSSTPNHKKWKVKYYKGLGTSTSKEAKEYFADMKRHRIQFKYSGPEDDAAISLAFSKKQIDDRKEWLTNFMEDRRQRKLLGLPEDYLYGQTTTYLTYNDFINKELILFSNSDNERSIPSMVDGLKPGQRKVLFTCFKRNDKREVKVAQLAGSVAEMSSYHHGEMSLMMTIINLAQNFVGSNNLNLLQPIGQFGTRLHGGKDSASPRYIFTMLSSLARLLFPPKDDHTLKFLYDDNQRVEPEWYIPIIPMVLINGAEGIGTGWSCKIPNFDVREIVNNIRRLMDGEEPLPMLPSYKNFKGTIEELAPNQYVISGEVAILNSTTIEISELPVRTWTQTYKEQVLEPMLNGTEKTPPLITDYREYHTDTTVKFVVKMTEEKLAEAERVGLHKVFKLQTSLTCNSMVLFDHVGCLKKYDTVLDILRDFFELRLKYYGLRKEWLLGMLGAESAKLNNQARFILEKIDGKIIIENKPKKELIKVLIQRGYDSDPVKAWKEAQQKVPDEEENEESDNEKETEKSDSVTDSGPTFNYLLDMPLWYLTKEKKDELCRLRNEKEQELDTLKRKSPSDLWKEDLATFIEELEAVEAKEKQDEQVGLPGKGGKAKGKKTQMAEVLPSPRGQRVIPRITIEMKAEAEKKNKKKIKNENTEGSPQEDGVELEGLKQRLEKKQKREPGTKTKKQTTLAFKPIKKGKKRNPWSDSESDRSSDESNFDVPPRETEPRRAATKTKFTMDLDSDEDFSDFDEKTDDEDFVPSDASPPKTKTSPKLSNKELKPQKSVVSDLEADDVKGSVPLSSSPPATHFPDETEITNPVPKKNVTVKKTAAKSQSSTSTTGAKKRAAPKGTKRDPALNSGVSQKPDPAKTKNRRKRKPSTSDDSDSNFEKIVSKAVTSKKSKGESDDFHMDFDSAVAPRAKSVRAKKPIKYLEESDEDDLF", "experiment": "Topoisomerase II retention on DNA/streptavidin beads (salt-stable complex)", "type": "biochemical", "design": "made in house; host or cells: yeast (over-expressing yeast cells)", "experimental": "An assay capable of measuring non-covalent complexes of topoisomerase II on closed circular DNA was performed as described in Morris et al., 2000, with modifications. When performing six reactions, 60 μL M280 streptavidin coated bead (Dynal A/S, Oslo, Norway) slurry corresponding to 600 μg beads was transferred to a 1.5 mL tube that was then placed in a Dynal MPC-E (magnetic particle concentrator) rack (Dynal A/S, Oslo, Norway) for 1 to 2 minutes until the beads had settled on the tube wall. The beads were then washed twice in the DNA binding solution supplied with the kilobase binding kit (Dynal A/S, Oslo, Norway) by repeating this step. Finally, the beads were re-suspended in 250 μL DNA binding solution. A preparation of biotin labelled plasmid DNA containing a 5-kb super coiled circular DNA molecule carrying 8 successive PNA (Peptide Nucleic Acid) linked biotin labels at one known position (pGeneGrip biotin blank vector, Gene Therapy Systems Inc., San Diego, Calif., USA) was made by mixing 220 μL distilled water and 30 μL biotinylated DNA. After mixing the beads and the DNA preparation, the sample was left overnight at room temperature under gentle agitation to assure optimal formation of the DynaBeads DNA complex. Next, the complex was washed twice in 480 μL wash buffer (10 mM TRIS-HCL, pH 7.5, 2 M NaCl, 1 mM EDTA), once in distilled water, and once in topoisomerase reaction buffer (10 mM TRIS-HCl, pH 7.9, 50 mM NaCl, 50 mM KCl, 5 mM MgCl2, 1 mM EDTA, […] BSA). Then, the beads were re-suspended in 600 μL topoisomerase II buffer and divided into 6 tubes. 100 μL reactions containing plasmid DNA coated DynaBeads, topoisomerase II buffer, 2 μg purified human topoisomerase […] and drugs were incubated for 30 minutes at 37° C. When included, ATP was present at 1 mM. […]\nFIG. 7 describes the results of studies of the ability of NSC 35866 to stabilise a salt-stable complex of human topoisomerase II α on covalently closed circular DNA. Retention of salt-stable (to 2 M KCl) complexes of human topoisomerase II α on circular DNA attached to magnetic beads via biotin-streptavidin linkage was determined by eluting retained protein by adding running buffer containing 4% SDS followed by heating to 100° C. for 10 minutes. The amount of human topoisomerase II α protein retained was then determined by running the samples on 7% SDS-PAGE gels followed by straining with GelCode Blue Strain Reagent (Pierce, Rockford, Ill., USA): Lane 1, no drug; Lane 2, 200 μM ICRF-187; Lane 3, 30 μM NSC 35866; Lane 4, 100 μM NSC 35866; Lane 5, 300 μM NSC 35866; Lane 6, 1000 μM NSC 35866; Lane K, 2 μg human topoisomerase II α. […]"}}, "data": [{"smiles": "Nc1nc(SCCc2ccccc2)c2nc[nH]c2n1", "note": "[NSC 35866, 2-amino-6-(phenylethylthio)-purine]", "values": [{"measurement": "reduction of etoposide-induced cytotoxicity", "setting": "[1]", "result": "up to 50 fold"}, {"measurement": "concentrations at which DNA strand passage activity is inhibited", "setting": "[2]; FIG. 2-A", "result": "above 250 μM"}, {"measurement": "inhibition of DNA strand passage (decatenation) activity, in words", "setting": "[2]; FIG. 2-A and FIG. 5", "result": "clearly less potent in comparison with the reference compound ICRF-187"}, {"measurement": "retention of topoisomerase II on DNA beads after 2 M KCl wash, in words", "setting": "[3]; 30, 100, 300 and 1000 μM, with ATP", "result": "traps human topoisomerase II α as a salt-stable complex on circular closed DNA in a dose-dependent manner"}, {"measurement": "retention of topoisomerase II on DNA beads, in words", "setting": "[3]; in the absence of ATP", "result": "only at 300 and 1000 μM"}]}]}
